Measurements taken from patent US20230391714A1, “INHIBITORS OF THE INTERACTION BETWEEN TRIP8B AND HCN CHANNELS AND USES THEREOF FOR TREATING NEUROLOGICAL DISEASES AND DISORDERS” (Northwestern University, priority 2022, published 2023).
Where two headings read alike, the source gives them in different places.

Target: TRIP8b-HCN1c40 (Homo sapiens (Human), UniProt Q8IYB4)
Assay: TRIP8b-HCN1c40 AlphaScreen assay
Type: binding
Method: AlphaScreen Assay. 20 nM ofGST-tagged HCNlc40 protein (corresponding to the C terminal 40 amino acids of HCN1) was incubated with 200 nM of His-tagged TRIP8b(241-602) and varying concentrations of the test compound as described in our prior report (Han et al., 2015). After a 3 h incubation, anti-GST AlphaScreen acceptor beads were added for 1.5 h followed by AlphaScreen nickel chelate donor beads for 1.5 h. AlphaScreen signal was quantified using a PerkinElmer (Waltham, MA) EnSpire multimode plate reader.

[1] = read-out: TRIP8b-HCN1c40 Alphascreen IC50
[2] = activity ranges, read-out: TRIP8b-HCN1c40 Alphascreen IC50 activity

Chain of TRIP8b-HCN1c40 (Q8IYB4 265-626): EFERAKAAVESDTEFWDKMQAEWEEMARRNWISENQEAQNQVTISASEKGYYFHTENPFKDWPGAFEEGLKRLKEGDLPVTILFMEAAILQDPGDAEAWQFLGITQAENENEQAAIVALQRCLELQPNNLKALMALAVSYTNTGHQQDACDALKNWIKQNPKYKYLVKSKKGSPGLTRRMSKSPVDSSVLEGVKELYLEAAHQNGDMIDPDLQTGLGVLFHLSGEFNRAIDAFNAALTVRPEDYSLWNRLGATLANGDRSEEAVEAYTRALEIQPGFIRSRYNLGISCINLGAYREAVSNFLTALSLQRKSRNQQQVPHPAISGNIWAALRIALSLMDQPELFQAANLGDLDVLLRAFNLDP

| SMILES | IC50 [1] [nM] | IC50 [2] [nM] |
| --- | --- | --- |
| CN1CCN(Cc2cc(OC(F)(F)F)ccc2OCC(=O)NCc2ccc(Cl)cc2)CC1 [NUCC-0201228] | 160000 | – |
| Cc1cccc(-c2ccc(OCC(=O)Nc3ccc(Cl)c(Cl)c3)c(CN3CCN(C)CC3)c2)c1 [NUCC-0202000] | 760 | < 1000 |
| CN1CCN(Cc2cc(-c3ccc(Cl)c(Cl)c3)ccc2OCC(=O)N2CCc3cc(Cl)c(Cl)cc32)CC1 [NUCC-0201991] | < 740 | < 1000 |
| Cc1ccc(-c2ccc(OCC(=O)NCc3ccc(Cl)cc3)c(CN3CCOCC3)c2)cc1 [NUCC-0201604] | 8100 | 5000 to 10000 |
| CN1CCN(Cc2cc(-c3ccc(Cl)c(Cl)c3)ccc2OCC(=O)NCCc2ccc(C(F)(F)F)cc2)CC1 [NUCC-0201995] | < 740 | < 1000 |
| COc1ccc([C@H](C)NC(=O)COc2ccc(-c3ccc(C)cc3)cc2CN2CCC(N(C)C)CC2)cc1 [NUCC-0201611] | > 40000 | – |
| CN1CCN(Cc2cc(-c3ccc(Cl)cc3)ccc2OCC(=O)NCc2ccc(Cl)cc2)CC1 [NUCC-0201972] | 5000 | – |
| CN1CCN(Cc2cc(-c3ccc(C(F)(F)F)cc3)ccc2OCC(=O)NCc2ccc(Cl)cc2)CC1 [NUCC-0201711] | 3900 | 2000 to 5000 |
| CCN(CCO)Cc1cc(-c2ccc(C)cc2)ccc1OCC(=O)NCc1ccc(O)cc1 [NUCC-0201605] | 35000 | – |
| CN1CCN(Cc2cc(-c3ccc(Cl)c(Cl)c3)ccc2OCC(=O)NCc2cccc(Cl)c2)CC1 [NUCC-0201986] | 1100 | 1000 to 2000 |
| Cc1cccc(-c2ccc(OCC(=O)Nc3cccc(S(C)(=O)=O)c3)c(CN3CC[C@H](N)C3)c2)c1 [NUCC-0201622] | 19000 | 10000 to 20000 |
| CN1CCN(Cc2cc(-c3ccc(Cl)c(Cl)c3)ccc2OCC(=O)NCc2ccc([N+](=O)[O-])cc2)CC1 [NUCC-0201985] | 2500 | 2000 to 5000 |
| Cc1ccc(-c2ccc(OCC(=O)NCc3ccccc3)c(CN3CCCN(C)CC3)c2)cc1 [NUCC-0201598] | 20000 | 10000 to 20000 |
| CN1CCN(Cc2cc(-c3ccc(Cl)c(Cl)c3)ccc2OCC(=O)NCc2ccc(Cl)cc2)CC1 [NUCC-0201973] | 1300 | 1000 to 2000 |
| CC(Oc1ccc(-c2cc(Cl)cc(Cl)c2)cc1CN1CCN(C)CC1)C(=O)NCc1ccc(Cl)cc1 (stereo not drawn) [NUCC-0202028] | 860 | < 1000 |
| CN1CCN(Cc2cc(-c3ccc(Cl)c(Cl)c3)ccc2OCC(=O)NC2Cc3ccc(Cl)cc3C2)CC1 (stereo not drawn) [NUCC-0201992] | < 740 | < 1000 |
| CN1CCN(Cc2cc(Oc3ccc(F)cc3)ccc2OCC(=O)NCc2ccc(Cl)cc2)CC1 [NUCC-0201229] | 7100 | 5000 to 10000 |
| CN1CCN(Cc2ccc(-c3ccc(C(F)(F)F)cc3)cc2OCC(=O)NCc2ccc(Cl)cc2)CC1 [NUCC-0202012] | 2100 | 2000 to 5000 |
| CN1CCN(Cc2cc(-c3ccc(Cl)c(Cl)c3)ccc2OCC(=O)NCCc2ccc(C#N)cc2)CC1 [NUCC-0201994] | 3400 | 2000 to 5000 |
| CN1CCN(Cc2cc(-c3ccccc3Cl)ccc2OCC(=O)Nc2ccc(Cl)c(Cl)c2)CC1 [NUCC-0201997] | < 740 | < 1000 |
| CN1CCN(Cc2cc(-c3ccc(Cl)c(Cl)c3)ccc2OCCNS(=O)(=O)c2ccc(Cl)cc2)CC1 [NUCC-0201975] | 1700 | 1000 to 2000 |

| SMILES | IC50 [1] [nM] | IC50 [2] [nM] |
| --- | --- | --- |
| CN1CCN(Cc2cc(-c3ccc(Cl)cc3)ccc2OCC(=O)Nc2ccc(Cl)c(Cl)c2)CC1 [NUCC-0201999] | < 740 | < 1000 |
| Cc1ccc(-c2ccc(OCC(=O)N[C@H](C)c3ccccc3)c(CN3CCOCC3)c2)cc1 [NUCC-0201606] | 28000 | 20000 to 40000 |
| CN1CCN(Cc2cc(-c3ccc(F)cc3)ccc2OCC(=O)NCc2ccc(C(F)(F)F)cc2)CC1 [NUCC-0201103] | 15000 | 10000 to 20000 |
| CN1CCN(Cc2ccc(-c3ccc(Cl)cc3)cc2OCC(=O)NCc2ccc(Cl)cc2)CC1 [NUCC-0202009] | 1000 | 1000 to 2000 |
| Cc1ccc(-c2ccc(CN3CCN(C)CC3)c(OCC(=O)NCc3ccc(Cl)cc3)c2)cc1 [NUCC-0202011] | 1500 | 1000 to 2000 |
| CC(Oc1ccc(-c2ccc(Cl)c(Cl)c2)cc1CN1CCN(C)CC1)C(=O)NCc1ccc(Cl)cc1 (stereo not drawn) [NUCC-0202027] | 940 | < 1000 |
| CN1CCN(Cc2cc(-c3ccc(Cl)cc3)ccc2OCCNS(=O)(=O)c2ccc(Cl)cc2)CC1 [NUCC-0201974] | 1800 | 1000 to 2000 |
| CN1CCN(Cc2cc(-c3ccc(Cl)c(Cl)c3)ccc2OCCNCc2ccc(Cl)cc2)CC1 [NUCC-0201976] | 830 | < 1000 |
| CN1CCN(Cc2cc(-c3ccc(Cl)c(Cl)c3)ccc2OCC(=O)N2CCc3ccccc32)CC1 [NUCC-0201980] | 1200 | 1000 to 2000 |
| Cc1ccc(-c2ccc(OC(C)C(=O)N[C@H](C)c3ccc(C)cc3)c(CN3CCN(C)CC3)c2)cc1 (stereo partly drawn) [NUCC-0202048] | 1900 | 1000 to 2000 |
| CN1CCN(Cc2ccc(-c3ccc(F)c(C(F)(F)F)c3)cc2OCC(=O)NCc2ccc(Cl)cc2)CC1 [NUCC-0202013] | 1400 | 1000 to 2000 |
| CN1CCN(Cc2cc(-c3ccc(CO)cc3)ccc2OCC(=O)Nc2ccc(Cl)c(Cl)c2)CC1 [NUCC-0202024] | 3200 | 2000 to 5000 |
| CN1CCN(Cc2cc(-c3cccc(Cl)c3)ccc2OCC(=O)Nc2ccc(Cl)c(Cl)c2)CC1 [NUCC-0201998] | < 740 | < 1000 |
| CN1CCN(Cc2cc(-c3ccc(F)cc3)ccc2OCC(=O)NCCN2CCCCC2)CC1 [NUCC-0201230] | > 200000 | – |
| CN1CCN(Cc2cc(-c3ccccc3)ccc2OCC(=O)Nc2ccc(Cl)c(Cl)c2)CC1 [NUCC-0202004] | 890 | < 1000 |
| CN1CCN(Cc2cc(-c3ccc(Cl)c(Cl)c3)ccc2OCC(=O)Nc2ccc(Cl)cc2)CC1 [NUCC-0202016] | 780 | < 1000 |
| CN1CCN(Cc2cc(-c3ccc(Cl)cc3)ccc2OCC(=O)NCc2ccc(Cl)cc2)CC1 [NUCC-0201712] | 3000 | 2000 to 5000 |
| CC(Oc1ccc(-c2ccc(F)c(C(F)(F)F)c2)cc1CN1CCN(C)CC1)C(=O)NCc1ccc(Cl)cc1 (stereo not drawn) [NUCC-0202033] | 990 | < 1000 |
| Cc1cccc(-c2ccc(OCC(=O)Nc3ccc(Cl)c(Cl)c3)c(CN3CC[C@H](N)C3)c2)c1 [NUCC-0201621] | 1300 | 1000 to 2000 |
| CCN(CC)C(=O)COc1ccc(-c2ccc(F)cc2)cc1CN1CCN(C)CC1 [NUCC-0201100] | 150000 | – |
| Cc1cccc(-c2ccc(OCC(=O)NCc3cccnc3)c(CN3CC[C@H](N)C3)c2)c1 [NUCC-0201626] | > 40000 | – |

| SMILES | IC50 [1] [nM] | IC50 [2] [nM] |
| --- | --- | --- |
| CN1CCN(Cc2cc(-c3ccc(N)cc3)ccc2OCC(=O)Nc2ccc(Cl)c(Cl)c2)CC1 [NUCC-0202020] | 1500 | 1000 to 2000 |
| CN1CCN(Cc2cc(-c3ccc(Cl)c(C(F)(F)F)c3)ccc2OCC(=O)Nc2ccc(Cl)c(Cl)c2)CC1 [NUCC-0202023] | 1300 | 1000 to 2000 |
| CN1CCN(Cc2cc(-c3ccc(Cl)c(Cl)c3)ccc2OCC(=O)NC2CCc3ccccc32)CC1 (stereo not drawn) [NUCC-0201988] | 1400 | 1000 to 2000 |
| CN1CCN(Cc2cc(-c3ccc4c(c3)OCCO4)ccc2OCC(=O)Nc2ccc(Cl)c(Cl)c2)CC1 [NUCC-0202021] | 1400 | 1000 to 2000 |
| Cc1ccc(-c2ccc(OCC(=O)NCc3cccc(Cl)c3)c(CN3CCC(N(C)C)CC3)c2)cc1 [NUCC-0201610] | 5000 | 2000 to 5000 |
| Cc1ccc(-c2ccc(OCC(=O)Nc3ccc4c(c3)OCO4)c(CN3CCCN(C)CC3)c2)cc1 [NUCC-0201600] | 9200 | 5000 to 10000 |
| CN1CCN(Cc2cc(-c3ccc(F)cc3)ccc2OCC(=O)N(C)Cc2ccccc2)CC1 [NUCC-0201102] | 91000 | – |
| Cc1ccc(NC(=O)COc2ccc(-c3ccc(Cl)c(Cl)c3)cc2CN2CCN(C)CC2)cc1 [NUCC-0202018] | 1000 | 1000 to 2000 |
| Cc1ccc(NC(=O)COc2ccc(-c3cccc(C)c3)cc2CN2CC[C@H](N)C2)cc1 [NUCC-0201618] | 8800 | 5000 to 10000 |
| Cc1ccc([C@@H](C)NC(=O)C(C)Oc2ccc(-c3cc(Cl)cc(Cl)c3)cc2CN2CCN(C)CC2)cc1 (stereo partly drawn) [NUCC-0202049] | < 740 | < 1000 |
| CN1CCN(Cc2cc(-c3c(Cl)cc(Cl)cc3Cl)ccc2OCC(=O)NCc2ccc(Cl)c(Cl)c2)CC1 [NUCC-0201969] | 1100 | 1000 to 2000 |
| CN1CCN(Cc2cc(-c3ccc(Cl)c(Cl)c3)ccc2OCC(=O)Nc2ccc(Cl)c(Cl)c2)CC1 [NUCC-0202002] | < 740 | < 1000 |
| C=Cc1ccccc1NC(=O)COc1ccc(-c2ccc(Cl)c(Cl)c2)cc1CN1CCN(C)CC1 [NUCC-0202015] | 1100 | 1000 to 2000 |
| CC(C)c1ccc(-c2ccc(OCC(=O)NCc3ccc(Cl)cc3)c(CN3CCNCC3)c2)cc1 [NUCC-0201616] | 5700 | 5000 to 10000 |
| CN1CCN(Cc2cc(-c3ccc(Cl)c(Cl)c3)ccc2OCC(=O)NC2Cc3ccccc3C2)CC1 [NUCC-0201989] | 1300 | 1000 to 2000 |
| CN1CCN(Cc2cc(-c3ccc(Cl)cc3Cl)ccc2OCC(=O)Nc2ccc(Cl)c(Cl)c2)CC1 [NUCC-0202001] | < 740 | < 1000 |
| Cc1ccc([C@@H](C)NC(=O)C(C)Oc2ccc(-c3ccc(Cl)c(Cl)c3)cc2CN2CCN(C)CC2)cc1 (stereo partly drawn) [NUCC-0202047] | < 740 | < 1000 |
| COc1ccc(NC(=O)COc2ccc(-c3cccc(C)c3)cc2CN2CC[C@H](N)C2)cn1 [NUCC-0201619] | 24000 | 20000 to 40000 |
| CN1CCN(Cc2cc(-c3cccc(S(C)(=O)=O)c3)ccc2OCC(=O)Nc2ccc(Cl)c(Cl)c2)CC1 [NUCC-0202022] | 2700 | 2000 to 5000 |
